From patent US20030165854A1, “Marker genes responding to treatment with toxins” (priority 2000, published 2003)

Key:
[1] = tested on: rat liver cDNAs SEQ ID NOs: 1-61; format: in vivo, Han/Wistar rat; conditions: Strain HW; for Maximum Abundance, SEQ ID NO 14, Clone ID 700330824: Sex F
[2] = tested on: rat liver cDNAs SEQ ID NOs: 1-61; format: in vivo, Han/Wistar rat; conditions: Strain HW, Sex F

Compound	Maximum Abundance, SEQ ID NO 15, Clone ID 700024728 [1]	Maximum Abundance, SEQ ID NO 16, Clone ID 700024834 [1]	Maximum Abundance, SEQ ID NO 17, Clone ID 700059927 [1]	Maximum Abundance, SEQ ID NO 19, Clone ID 700062240 [1]	Maximum Abundance, SEQ ID NO 21, Clone ID 700064131 [1]	Maximum Abundance, SEQ ID NO 23, Clone ID 700067778 [1]	Maximum Abundance, SEQ ID NO 24, Clone ID 700123633 [1]	Maximum Abundance, SEQ ID NO 31, Clone ID 700140450 [1]	Maximum Abundance, SEQ ID NO 32, Clone ID 700144406 [1]	Maximum Abundance, SEQ ID NO 33, Clone ID 700175249 [1]	Maximum Abundance, SEQ ID NO 34, Clone ID 700177158 [1]	Maximum Abundance, SEQ ID NO 38, Clone ID 700185871 [1]	Maximum Abundance, SEQ ID NO 41, Clone ID 700248367 [1]	Maximum Abundance, SEQ ID NO 45, Clone ID 700305380 [1]	Maximum Abundance, SEQ ID NO 48, Clone ID 700363174 [1]	Maximum Abundance, SEQ ID NO 50, Clone ID 700480077 [1]	Maximum Abundance, SEQ ID NO 51, Clone ID 700483222 [1]	Maximum Abundance, SEQ ID NO 53, Clone ID 700818852 [1]	Maximum Abundance, SEQ ID NO 61, Clone ID 701637512 [1]	Maximum Abundance, SEQ ID NO 12, Clone ID 700062506 [2]	further results
S=C=Nc1cccc2ccccc12 [ANIT, α-naphthylisothiocyanate]	3	3	4	5	3	3	3	8	4	7	3	3	3	4	3	3	3	5	4	3	Maximum Abundance, SEQ ID NO 18, Clone ID 700060675 [1]: 4; Maximum Abundance, SEQ ID NO 20, Clone ID 700063569 [1]: 3; Maximum Abundance, SEQ ID NO 29, Clone ID 700137416 [1]: 4; Maximum Abundance, SEQ ID NO 35, Clone ID 700179766 [1]: 3; Maximum Abundance, SEQ ID NO 36, Clone ID 700181614 [1]: 3; Maximum Abundance, SEQ ID NO 39, Clone ID 700198357 [1]: 3; Maximum Abundance, SEQ ID NO 40, Clone ID 700230123 [1]: 4; Maximum Abundance, SEQ ID NO 49, Clone ID 700478138 [1]: 5; Maximum Abundance, SEQ ID NO 54, Clone ID 700937735 [1]: 8; Maximum Abundance, SEQ ID NO 55, Clone ID 701197728 [1]: 3; Maximum Abundance, SEQ ID NO 56, Clone ID 701257766 [1]: 3; Maximum Abundance, SEQ ID NO 57, Clone ID 701341861 [1]: 3; Maximum Abundance, SEQ ID NO 60, Clone ID 701597659 [1]: 3; Maximum Abundance, SEQ ID NO 14, Clone ID 700330824 [1]: 3
CC(=O)Nc1cccc2c1-c1ccccc1C2 [4-AAF, 4-acetylaminofluorene]	3	3		5	3			8			3	3	3	4	3	3	3	5	4	3	Maximum Abundance, SEQ ID NO 22, Clone ID 700065081 [1]: 3; Maximum Abundance, SEQ ID NO 25, Clone ID 700127949 [1]: 3; Maximum Abundance, SEQ ID NO 26, Clone ID 700132557 [1]: 7; Maximum Abundance, SEQ ID NO 27, Clone ID 700135733 [1]: 4; Maximum Abundance, SEQ ID NO 28, Clone ID 700135850 [1]: 3; Maximum Abundance, SEQ ID NO 30, Clone ID 700140375 [1]: 3; Maximum Abundance, SEQ ID NO 37, Clone ID 700182016 [1]: 3; Maximum Abundance, SEQ ID NO 43, Clone ID 700253694 [1]: 3; Maximum Abundance, SEQ ID NO 44, Clone ID 700303850 [1]: 3; Maximum Abundance, SEQ ID NO 54, Clone ID 700937735 [1]: 8; Maximum Abundance, SEQ ID NO 57, Clone ID 701341861 [1]: 3; Maximum Abundance, SEQ ID NO 58, Clone ID 701574951 [1]: 3; Maximum Abundance, SEQ ID NO 14, Clone ID 700330824 [1]: 3; Maximum Abundance, SEQ ID NO 13, Clone ID 700135749 [2]: 4
NN [Hydra, hydrazine]			4			3	3		4	7									4	3	Maximum Abundance, SEQ ID NO 28, Clone ID 700135850 [1]: 3; Maximum Abundance, SEQ ID NO 13, Clone ID 700135749 [2]: 4
